Calls of active or inactive are those of the source. No stated cut-off is given here; in the data, actives have a measured EC50 and inactives only a lower limit.
Target: T1, RNA-binding protein pos-1 (Caenorhabditis elegans, UniProt G5EF15)
T1 sequence (G5EF15 whole entry): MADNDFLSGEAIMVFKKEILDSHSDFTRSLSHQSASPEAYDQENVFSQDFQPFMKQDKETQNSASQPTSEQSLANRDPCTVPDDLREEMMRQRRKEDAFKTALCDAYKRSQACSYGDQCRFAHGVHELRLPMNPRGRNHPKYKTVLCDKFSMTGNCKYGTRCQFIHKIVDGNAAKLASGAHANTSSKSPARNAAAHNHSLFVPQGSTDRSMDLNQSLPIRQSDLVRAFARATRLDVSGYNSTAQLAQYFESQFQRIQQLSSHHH
Assay: inhibitors of POS-1/mex-3 RNA binding, dose response, biochemical, fluorescence polarization (AID 1964);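 further: purified POS-1 fused to maltose binding protein made in E. coli; potency of compounds blocking POS-1 binding to fluorescent RNA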

Structure (SMILES) | EC50
O=C1C(Cl)=C(Nc2ccccc2O)C(=O)N1c1ccccc1 | > 300 µM (not active)
O=C1NC(=O)N(c2ccc(Br)cc2)C(=O)/C1=C/NCCN1CCCCC1 | > 300 µM (not active)
COC(=O)CCC(=O)OC1(C)C(=O)C=C2C=C(c3ccsc3)OC=C2C1=O (stereo not given) | 36.8 µM (active)
COC(=O)CCCC1=CC2=CC(=O)C(C)(OC(=O)c3cccs3)C(=O)C2=CO1 (stereo not given) | 14 µM (active)
CCCn1c(=N)c(C(=O)NCC2CCCO2)cc2c(=O)n3cccc(C)c3nc21 (stereo not given) | > 300 µM (not active)
Cc1cc(=O)nc2c3ccccc3n(CC(=O)Nc3ccccc3Br)n12 | > 300 µM (not active)
OCCOc1ccc(C2=NCCO2)cc1 | > 300 µM (not active)
CCN1/C(=C2/SC(=S)N(NC(C)=O)C2=O)Sc2ccccc21 | 60.7 µM (active)
Cc1nc2ccccc2c2oc(C(=O)Nc3ccc4c(c3)OCCO4)cc12 | 16.6 µM (active)
COc1cc(C2NC(S)=NC(C)=C2C(=O)OC(C)C)ccc1OC(C)C (stereo not given) | > 300 µM (not active)

Test system: Streptococcus sp. 'group A'
Assay: growth inhibition of control SK(-) GAS strain, dose response, counter-screen for streptokinase expression inhibitor project, luminescence, kanamycin, BacTiterGlo, confirmation (AID 1900)
Type: functional, organism-based

Structure (SMILES) | EC50
O=C(CSc1nnc(NC(=O)C2CC(=O)N(c3ccc(F)cc3)C2)s1)NCc1ccco1 (stereo not given) | > 150 µM (not active)
CC1CCN(c2nc(-c3ccccc3)cc(C(F)(F)F)n2)CC1 | 3.73 µM (active)
CN(CC1CCCO1)S(=O)(=O)c1ccc(C(=O)Nc2ccc(F)cc2)cc1 (stereo not given) | > 150 µM (not active)
COC(=O)c1c(C)[nH]c(C(=O)OCC(=O)N(CC(C)C)c2c(N)n(Cc3ccccc3)c(=O)[nH]c2=O)c1C | 5.83 µM (active)
CC(C)(C)c1nc(NC(=O)Nc2ccccc2)sc1Br | 4.45 µM (active)
O=[N+]([O-])c1cccc(/C=N/Nc2nc(N3CCCCC3)nc(N3CCCCC3)n2)c1 | 33.5 µM (active)

Target: T2, Zinc finger protein mex-5 (Caenorhabditis elegans, UniProt Q9XUB2)
T2 sequence (Q9XUB2 whole entry): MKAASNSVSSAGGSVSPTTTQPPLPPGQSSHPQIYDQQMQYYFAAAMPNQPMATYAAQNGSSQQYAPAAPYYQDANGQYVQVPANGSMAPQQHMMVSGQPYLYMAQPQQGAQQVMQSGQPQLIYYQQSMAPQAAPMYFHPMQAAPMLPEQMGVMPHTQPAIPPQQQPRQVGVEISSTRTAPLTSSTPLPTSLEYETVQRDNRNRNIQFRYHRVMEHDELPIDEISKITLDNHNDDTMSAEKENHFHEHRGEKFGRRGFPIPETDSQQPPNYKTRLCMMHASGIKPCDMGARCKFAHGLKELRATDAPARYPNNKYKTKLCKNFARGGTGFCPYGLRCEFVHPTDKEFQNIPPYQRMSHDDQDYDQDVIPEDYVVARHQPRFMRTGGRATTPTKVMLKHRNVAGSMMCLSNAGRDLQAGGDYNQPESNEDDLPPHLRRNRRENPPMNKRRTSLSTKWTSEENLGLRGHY
Assay: MEX-5/TCR-2 RNA interaction inhibitors, dose response, biochemical, C. elegans, fluorescence polarization (AID 1960)

Structure (SMILES) | EC50
O=C1C(Cl)=C(Nc2ccccc2O)C(=O)N1c1ccccc1 | 73 µM (inconclusive)
O=C1NC(=O)N(c2ccc(Br)cc2)C(=O)/C1=C/NCCN1CCCCC1 | 106 µM (active)
COC(=O)CCC(=O)OC1(C)C(=O)C=C2C=C(c3ccsc3)OC=C2C1=O (stereo not given) | 26.7 µM (inconclusive)
COC(=O)CCCC1=CC2=CC(=O)C(C)(OC(=O)c3cccs3)C(=O)C2=CO1 (stereo not given) | 16.5 µM (active)
CCCn1c(=N)c(C(=O)NCC2CCCO2)cc2c(=O)n3cccc(C)c3nc21 (stereo not given) | > 300 µM (not active)
Cc1cc(=O)nc2c3ccccc3n(CC(=O)Nc3ccccc3Br)n12 | 103 µM (active)
OCCOc1ccc(C2=NCCO2)cc1 | > 300 µM (not active)
CCN1/C(=C2/SC(=S)N(NC(C)=O)C2=O)Sc2ccccc21 | > 300 µM (not active)
Cc1nc2ccccc2c2oc(C(=O)Nc3ccc4c(c3)OCCO4)cc12 | 25.9 µM (inconclusive)
COc1cc(C2NC(S)=NC(C)=C2C(=O)OC(C)C)ccc1OC(C)C (stereo not given) | > 300 µM (not active)

Target: T3, Streptokinase A (Streptococcus pyogenes serotype M1, UniProt P10520)
T3 sequence (P10520 whole entry): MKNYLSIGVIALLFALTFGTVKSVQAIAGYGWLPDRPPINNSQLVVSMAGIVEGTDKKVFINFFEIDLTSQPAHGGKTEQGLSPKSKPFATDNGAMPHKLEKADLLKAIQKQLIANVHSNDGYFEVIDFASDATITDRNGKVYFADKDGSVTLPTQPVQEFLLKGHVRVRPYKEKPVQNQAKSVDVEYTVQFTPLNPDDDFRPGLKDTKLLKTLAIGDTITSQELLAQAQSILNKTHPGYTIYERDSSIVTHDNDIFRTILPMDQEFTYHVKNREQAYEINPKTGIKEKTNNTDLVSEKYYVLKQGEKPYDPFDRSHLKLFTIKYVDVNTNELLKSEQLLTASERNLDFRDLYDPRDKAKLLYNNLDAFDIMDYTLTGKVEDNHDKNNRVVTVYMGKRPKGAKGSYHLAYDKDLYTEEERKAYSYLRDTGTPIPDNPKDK
Assay: S. pyogenes streptokinase expression inhibitors, potency, dose response, plasminogen activation absorbance, OD405 (AID 1914);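 further: secreted streptokinase activity via plasminogen activation per viability signal from cell pellet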
Type: functional, Streptococcus pyogenes M1 GAS

Structure (SMILES) | EC50
O=C(CSc1nnc(NC(=O)C2CC(=O)N(c3ccc(F)cc3)C2)s1)NCc1ccco1 (stereo not given) | > 150 µM (not active)
CC1CCN(c2nc(-c3ccccc3)cc(C(F)(F)F)n2)CC1 | 9.36 µM (inconclusive)
CN(CC1CCCO1)S(=O)(=O)c1ccc(C(=O)Nc2ccc(F)cc2)cc1 (stereo not given) | > 150 µM (not active)
COC(=O)c1c(C)[nH]c(C(=O)OCC(=O)N(CC(C)C)c2c(N)n(Cc3ccccc3)c(=O)[nH]c2=O)c1C | > 150 µM (not active)
CC(C)(C)c1nc(NC(=O)Nc2ccccc2)sc1Br | > 50 µM (not active)
O=[N+]([O-])c1cccc(/C=N/Nc2nc(N3CCCCC3)nc(N3CCCCC3)n2)c1 | 39.4 µM (active)

Test system: not listed separately
Assay: inhibitors of intracellular T. cruzi replication, confirmation, NIH3T3 host cells, beta-gal luminescence (AID 2044);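 further: intracellular parasites grown in NIH/3T3 mouse fibroblasts as host cells; luminescent beta-galactosidase reporter signal from transgenic T. cruzi replicating inside host cells; inhibitors lower the luminescence signal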
Type: functional, cell-based

Structure (SMILES) | EC50
CC(C)(C)c1nc(NC(=O)Nc2ccccc2)sc1Br | 4.22 µM (active)

Test system: not listed separately
Assay: cytotoxicity toward NIH3T3 fibroblasts, dose response, counter-screen, cell-based, ATP luminescence, mouse fibroblasts (AID 2010);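 further: cells exposed to compound for about 90 hours before reading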
Type: functional

Structure (SMILES) | EC50
CC(C)(C)c1nc(NC(=O)Nc2ccccc2)sc1Br | > 60 µM (not active)

Test system: Streptococcus
Assay: Group A Streptococcus viability loss, dose response, counter-screen for streptokinase expression inhibitor project, luminescence, BacTiterGlo (AID 1915);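 further: potency for reduction of bacterial viability or growth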
Type: functional, organism-based

Structure (SMILES) | EC50
O=C(CSc1nnc(NC(=O)C2CC(=O)N(c3ccc(F)cc3)C2)s1)NCc1ccco1 (stereo not given) | > 150 µM (not active)
CC1CCN(c2nc(-c3ccccc3)cc(C(F)(F)F)n2)CC1 | 9.37 µM (active)
CN(CC1CCCO1)S(=O)(=O)c1ccc(C(=O)Nc2ccc(F)cc2)cc1 (stereo not given) | > 150 µM (not active)
COC(=O)c1c(C)[nH]c(C(=O)OCC(=O)N(CC(C)C)c2c(N)n(Cc3ccccc3)c(=O)[nH]c2=O)c1C | > 150 µM (not active)
CC(C)(C)c1nc(NC(=O)Nc2ccccc2)sc1Br | 6.77 µM (active)
O=[N+]([O-])c1cccc(/C=N/Nc2nc(N3CCCCC3)nc(N3CCCCC3)n2)c1 | > 150 µM (not active)

Target: T4, Heat shock factor protein 1 (Mus musculus, UniProt P38532)
T4 sequence (P38532 whole entry): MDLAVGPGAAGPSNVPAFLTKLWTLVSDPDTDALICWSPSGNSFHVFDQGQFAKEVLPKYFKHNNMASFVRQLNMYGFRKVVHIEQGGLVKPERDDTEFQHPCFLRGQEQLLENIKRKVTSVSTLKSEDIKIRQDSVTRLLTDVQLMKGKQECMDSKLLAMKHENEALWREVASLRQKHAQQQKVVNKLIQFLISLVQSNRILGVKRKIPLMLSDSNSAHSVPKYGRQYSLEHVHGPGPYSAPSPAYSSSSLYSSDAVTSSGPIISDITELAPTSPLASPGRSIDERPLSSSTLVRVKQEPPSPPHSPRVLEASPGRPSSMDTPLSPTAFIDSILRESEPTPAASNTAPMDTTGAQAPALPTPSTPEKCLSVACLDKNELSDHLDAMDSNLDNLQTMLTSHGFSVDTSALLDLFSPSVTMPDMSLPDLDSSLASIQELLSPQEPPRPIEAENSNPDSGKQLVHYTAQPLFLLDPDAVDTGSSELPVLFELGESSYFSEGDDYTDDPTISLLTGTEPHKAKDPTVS
Assay: HSF1 potentiators in luciferase reporter cells, confirmation, cell-based, NIH3T3, luminescence, dose retest (AID 435004);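 further: stress induced by proteasome inhibitor MG132 added 30 min after compound; luciferase reporter driven by HSF1 response element in NIH3T3 cells; actives raise luminescence as potentiators of the MG132 stress response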
Type: functional

Structure (SMILES) | EC50
COc1cc(C2CC(c3cccnc3)=NN2c2ccc(F)cc2)cc(OC)c1OC (stereo not given) | 48.5 µM (active)
CCOC(=O)c1cc(C#N)c(SCc2ccc(C#N)cc2)nc1C | 41.9 µM (active)
Nc1ccccc1Nc1ccc([N+](=O)[O-])cc1[N+](=O)[O-] | > 260 µM (inactive)
CC(C)(C)NC(=O)c1ccc2c3c(cccc13)CC2 | > 260 µM (inactive)
CCOc1ccc(N2CC(=O)C(c3nc(O)c4ccccc4n3)=C2N)cc1 | > 260 µM (inactive)

Source: ChEMBL document CHEMBL1201862, “PubChem BioAssay data set” (2004)
